# Experimental data: ChEMBL document CHEMBL3046320, “Synthesis and evaluation of antioxidant activity of 2-styrylchromones” (Med Chem Res, 2013)
# Test system: Radical scavenging activity
# Test: Antioxidant activity assessed as DPPH radical scavenging activity by DPPH method
# Assay type: functional
# Set-up: concentration or dose not given beside the values
row,Structure (SMILES),Activity [%]
1,C/C(=C\c1cc(=O)c2ccccc2o1)c1ccccc1,65.8
2,O=c1cc(/C=C/c2ccccc2)oc2cc(I)c(Cl)cc12,67.2
3,COc1ccc(/C=C/c2cc(=O)c3cc(Br)ccc3o2)cc1,60.9
4,COc1ccc(/C=C/c2cc(=O)c3c(O)cccc3o2)cc1,71.1
5,C/C(=C\c1cc(=O)c2cc(Cl)c(I)cc2o1)c1ccccc1,71.4
6,COc1ccc(/C=C/c2cc(=O)c3ccc(I)cc3o2)cc1,66.8
7,COc1ccc(/C=C/c2cc(=O)c3cc(Cl)c(I)cc3o2)cc1,69.1
8,O=c1cc(/C=C/c2ccccc2)oc2cc(I)ccc12,65
9,O=c1cc(/C=C/c2ccccc2)oc2ccccc12,64.4
10,C/C(=C\c1cc(=O)c2ccc(I)cc2o1)c1ccccc1,69.6
